Measurements from publication PMC11218202, “Targeting of 3D oral cancer spheroids by αVβ6 integrin using near-infrared peptide-conjugated IRDye 680” (Cancer Cell International, 2024).

Key:
[1] = test system: HSC-3 cells; details: 24 h, 0.1–4 µM, serum-free medium, highest concentration 4 µM, p > 0.05
Protocol: (§1) Cells were seeded into 96-well plates (100 µL, 4.10^4 cells/mL) for 5 days, then culture medium was replaced with 0.1–4 µM of IRDye-conjugates diluted in serum-free medium for 24 h at 37 °C. Afterwards, cells were washed, fixed with 70% ethanol for 10 min and further incubated with 0.2% crystal violet in 20% ethanol for 15 min. After several washes, crystal violet was solubilized using 0.1% acetic acid and 50% ethanol and optical density was recorded at 540 nm with Multiskan microplate readers (Ascent, Labsystems). Cell viability was calculated by normalizing to that of the control condition.

[2] = test system: MRC-5 cells; details: 24 h, 0.1–4 µM, serum-free medium, highest concentration 4 µM, p > 0.05
Protocol: as §1

[3] = test system: HSC-3 cells; assay: Internalization studies in HSC-3 monolayers (4 °C vs 37 °C, endocytosis inhibitors), flow cytometry; type: cell-based, human; details: for reduction of cellular uptake of IRDye-A20 by endocytosis inhibitor: HSC-3 cells pre-incubated 30 min with Genistein 400 µM, Chlorpromazin or EIPA 100 µM, then IRDye-A20 500 nM for 3 h, n = 3–4
[4] = test system: H10 HSC-3 spheroids; assay: Accumulation in homotypic H10 (HSC-3) spheroids, flow cytometry; type: cell-based, human

## CGGGSGGGSLRDQTGLKNPVQLARVAV [IRDye-Scr, IRDye 680 conjugated to a scramble version of the A20 peptide, control for non-specific delivery]
[1]
  loss of viability (crystal violet): Loss of viability was not detected
[2]
  loss of viability (crystal violet): Loss of viability was not detected
[3]; HSC-3 monolayers, 3 h, 1-500 nM, n = 4
  inhibition of internalization at 4 °C versus 37 °C: significant inhibition of internalization at 4 °C was observed only at the highest concentrations
[4]; 100 nM, 24 h
  MFI, fold less compared to IRDye-A20: 20 fold
[4]; 3 h, maximum over 1-250 nM, n = 4–5
  percentage of labeled cells: 3%
[4]; 6 h, maximum over 1-250 nM, n = 4–5
  percentage of labeled cells: 7%
[4]; 24 h, 50 nM
  percentage of labeled cells: ≤ 3%
[4]; 24 h, 100 nM
  percentage of labeled cells: 11%
[4]; 24 h, 250 nM
  percentage of labeled cells: 45%

## CCN(c1nc(N)c(C(=O)N=C(N)N)nc1Cl)C(C)C [EIPA, (5-(N-Ethyl-N-isopropyl)-Amiloride)]
[3]
  reduction of cellular uptake of IRDye-A20 by endocytosis inhibitor: not affected

## O=c1c(-c2ccc(O)cc2)coc2cc(O)cc(O)c12 [genistein, Genistein]
[3]
  reduction of cellular uptake of IRDye-A20 by endocytosis inhibitor: 30%

## CN(C)CCCN1c2ccccc2Sc2ccc(Cl)cc21 [chlorpromazine, Chlorpromazin]
[3]
  reduction of cellular uptake of IRDye-A20 by endocytosis inhibitor: not affected
